Like-named read-outs stand apart in the source and are kept apart here.
Legend:
Type in all cases: in vivo
[1] = tested on: Tetranychus urticae (Two-spotted spider mite); assay: Tetranychus urticae feeding/contact activity on bean leaf discs; conditions: foliar, 192 h, read-out: mortality on mixed population (mobile stages)
Procedure: Tetranychus urticae (Two-spotted spider mite): Feeding/contact activity
Bean leaf discs on agar in 24-well microtiter plates were sprayed with aqueous test solutions prepared from 10′000 ppm DMSO stock solutions. After drying the leaf discs were infested with a mite population of mixed ages. The samples were assessed for mortality on mixed population (mobile stages) 8 days after infestation.

[2] = tested on: Myzus persicae (Green peach aphid); assay: Myzus persicae feeding/contact activity on sunflower leaf discs; conditions: foliar, 144 h
Procedure: Myzus persicae (Green peach aphid): Feeding/Contact activity
Sunflower leaf discs were placed onto agar in a 24-well microtiter plate and sprayed with aqueous test solutions prepared from 10′000 ppm DMSO stock solutions. After drying, the leaf discs were infested with an aphid population of mixed ages. The samples were assessed for mortality 6 days after infestation.

[3] = tested on: Euschistus heros (Neotropical Brown Stink Bug); assay: Euschistus heros feeding/contact activity on soybean leaves; conditions: 120 h
Procedure: Euschistus heros (Neotropical Brown Stink Bug): Feeding/contact activity
Soybean leaves on agar in 24-well microtiter plates were sprayed with aqueous test solutions prepared from 10′000 ppm DMSO stock solutions. After drying the leaves were infested with N2 nymphs. The samples were assessed for mortality 5 days after infestation.

[4] = tested on: Spodoptera littoralis (Egyptian cotton leaf worm); assay: Spodoptera littoralis feeding/contact activity on cotton leaf discs; conditions: foliar, 72 h
Procedure: Spodoptera littoralis (Egyptian cotton leaf worm): Feeding/contact activity
Cotton leaf discs were placed onto agar in 24-well microtiter plates and sprayed with aqueous test solutions prepared from 10′000 ppm DMSO stock solutions. After drying the leaf discs were infested with five L1 larvae. The samples were assessed for mortality 3 days after infestation. […] 2, 3, 4, 5, 6, 7, 8, 9, 10, 11, 12, 13, 14, 15, 16, 17, 18, 19, 20, 21, 22, 23, 24, 25, 26, 27, 28 and 29.

[5] = tested on: Plutella xylostella (Diamond back moth); assay: Plutella xylostella feeding/contact activity on artificial diet; conditions: 120 h
Procedure: Plutella xylostella (Diamond back moth): Feeding/contact activity
24-well microtiter plates with artificial diet were treated with aqueous test solutions prepared from 10′000 ppm DMSO stock solutions by pipetting. After drying, the plates were infested with L2 larvae (10 to 15 per well). The samples were assessed for mortality 5 days after infestation.

[6] = application rate 200 ppm, mite population of mixed ages, assessed 8 days after infestation
[7] = application rate 200 ppm, aphid population of mixed ages, assessed 6 days after infestation, read-out: mortality
[8] = application rate 200 ppm, N2 nymphs, assessed 5 days after infestation, read-out: mortality
[9] = application rate 200 ppm, L1 larvae, assessed 3 days after infestation, read-out: mortality
[10] = application rate 200 ppm, L2 larvae, assessed 5 days after infestation, read-out: mortality

Measured: mortality at 200 ppm

Cn1nc(C(F)(C(F)(F)F)C(F)(F)F)c(OC(F)F)c1-n1cc(-c2ccc(Cl)c(C(=O)N(CC#N)C3CC3)c2)cn1 [Example 16, 2-chloro-N-(cyanomethyl)-N-cyclopropyl-5-[1-[4-(difluoromethoxy)-2-methyl-5-[1,2,2,2-tetrafluoro-1-(trifluoromethyl)ethyl]pyrazol-3-yl]pyrazol-4-yl]benzamide]
≥ 80%: [1]; [6] | [2]; [7] | [3]; [8] | [4]; [9] | [5]; [10]

CC(C)OC(=O)N(C(=O)c1cc(-c2cnn(-c3c(OC(F)F)c(C(F)(C(F)(F)F)C(F)(F)F)nn3C)c2)ccc1Cl)C1(C#N)CC1 [Example 20, isopropyl N-[2-chloro-5-[1-[4-(difluoromethoxy)-2-methyl-5-[1,2,2,2-tetrafluoro-1-(trifluoromethyl)ethyl]pyrazol-3-yl]pyrazol-4-yl]benzoyl]-N-(1-cyanocyclopropyl)carbamate]
≥ 80%: [2] | [3] | [4] | [5]

COCCCN(C(=O)c1cc(-c2cnn(-c3c(OC(F)F)c(C(F)(C(F)(F)F)C(F)(F)F)nn3C)c2)ccc1Cl)C1(C#N)CC1 [Example 6, 2-chloro-N-(1-cyanocyclopropyl)-5-[1-[4-(difluoromethoxy)-2-methyl-5-[1,2,2,2-tetrafluoro-1-(trifluoromethyl)ethyl]pyrazol-3-yl]pyrazol-4-yl]-N-(3-methoxypropyl)benzamide]
≥ 80%: [1]; [6] | [2]; [7] | [3]; [8] | [4]; [9] | [5]; [10]

COCC(=O)N(C(=O)c1cc(-c2cnn(-c3c(OC(F)F)c(C(F)(C(F)(F)F)C(F)(F)F)nn3C)c2)ccc1Cl)C1CC1 [Example 22, 2-chloro-N-cyclopropyl-5-[1-[-4-(difluoromethoxy)-2-methyl-5-[1,2,2,2-tetrafluoro-1-(trifluoromethyl)ethyl]pyrazol-3-yl]pyrazol-4-yl]-N-(2-methoxyacetyl)benzamide]
≥ 80%: [1]; [6] | [2]; [7] | [3]; [8] | [4]; [9] | [5]; [10]

CC(C)CN(C(=O)c1cc(-c2cnn(-c3c(OC(F)F)c(C(F)(C(F)(F)F)C(F)(F)F)nn3C)c2)ccc1Cl)C1(C#N)CC1 [Example 21, 2-chloro-N-(1-cyanocyclopropyl)-5-[1-[4-(difluoromethoxy)-2-methyl-5-[1,2,2,2-tetrafluoro-1-(trifluoromethyl)ethyl]pyrazol-3-yl]pyrazol-4-yl]-N-isobutyl-benzamide]
≥ 80%: [3]; [8] | [4]; [9]

CC(C)OCN(C(=O)c1cc(-c2cnn(-c3c(OC(F)F)c(C(F)(C(F)(F)F)C(F)(F)F)nn3C)c2)ccc1Cl)C1(C#N)CC1 [Example 2, 2-chloro-N-(1-cyanocyclopropyl)-5-[1-[4-(difluoromethoxy)-2-methyl-5-[1,2,2,2-tetrafluoro-1-(trifluoromethyl)ethyl]pyrazol-3-yl]pyrazol-4-yl]-N-(isopropoxymethyl)benzamide]
≥ 80%: [1]; [6] | [2]; [7] | [3]; [8] | [4]; [9] | [5]; [10]

CCOCN(C(=O)c1cc(-c2cnn(-c3c(OC(F)F)c(C(F)(C(F)(F)F)C(F)(F)F)nn3C)c2)ccc1Cl)C1(C#N)CC1 [Example 10, 2-chloro-N-(1-cyanocyclopropyl)-5-[1-[4-(difluoromethoxy)-2-methyl-5-[1,2,2,2-tetrafluoro-1-(trifluoromethyl)ethyl]pyrazol-3-yl]pyrazol-4-yl]-N-(ethoxymethyl)benzamide]
≥ 80%: [1]; [6] | [2]; [7] | [3]; [8] | [4]; [9] | [5]; [10]

COCN(C(=O)c1cc(-c2cnn(-c3c(OC(F)F)c(C(F)(C(F)(F)F)C(F)(F)F)nn3C)c2)ccc1Cl)C1CC1 [Example 28, 2-chloro-N-cyclopropyl-5-[1-[4-(difluoromethoxy)-2-methyl-5-[1,2,2,2-tetrafluoro-1-(trifluoromethyl)ethyl]pyrazol-3-yl]pyrazol-4-yl]-N-(methoxymethyl)benzamide]
≥ 80%: [1]; [6] | [2]; [7] | [3]; [8] | [4]; [9] | [5]; [10]

CCOCN(C(=O)c1cc(-c2cnn(-c3c(OC(F)F)c(C(F)(C(F)(F)F)C(F)(F)F)nn3C)c2)ccc1Cl)C1CC1 [Example 27, 2-chloro-N-cyclopropyl-5-[1-[4-(difluoromethoxy)-2-methyl-5-[1,2,2,2-tetrafluoro-1-(trifluoromethyl)ethyl]pyrazol-3-yl]pyrazol-4-yl]-N-(ethoxymethyl)benzamide]
≥ 80%: [1]; [6] | [2]; [7] | [3]; [8] | [4]; [9] | [5]; [10]

COCN(C(=O)c1cc(-c2cnn(-c3c(OC(F)F)c(C(F)(C(F)(F)F)C(F)(F)F)nn3C)c2)ccc1Cl)C1(C#N)CC1 [Example 9, 2-chloro-N-(1-cyanocyclopropyl)-5-[1-[4-(difluoromethoxy)-2-methyl-5-[1,2,2,2-tetrafluoro-1-(trifluoromethyl)ethyl]pyrazol-3-yl]pyrazol-4-yl]-N-(methoxymethyl)benzamide]
≥ 80%: [1]; [6] | [2]; [7] | [3]; [8] | [4]; [9] | [5]; [10]

CCOC(=O)N(C(=O)c1cc(-c2cnn(-c3c(OC(F)F)c(C(F)(C(F)(F)F)C(F)(F)F)nn3C)c2)ccc1Cl)C1(C#N)CC1 [Example 8, ethyl N-[2-chloro-5-[1-[4-(difluoromethoxy)-2-methyl-5-[1,2,2,2-tetrafluoro-1-(trifluoromethyl)ethyl]pyrazol-3-yl]pyrazol-4-yl]benzoyl]-N-(1-cyanocyclopropyl)carbamate]
≥ 80%: [1] | [2] | [3] | [4] | [5]

COCCN(C(=O)c1cc(-c2cnn(-c3c(OC(F)F)c(C(F)(C(F)(F)F)C(F)(F)F)nn3C)c2)ccc1Cl)C1(C#N)CC1 [Example 7, 2-chloro-N-(1-cyanocyclopropyl)-5-[1-[4-(difluoromethoxy)-2-methyl-5-[1,2,2,2-tetrafluoro-1-(trifluoromethyl)ethyl]pyrazol-3-yl]pyrazol-4-yl]-N-(2-methoxyethyl)benzamide]
≥ 80%: [1]; [6] | [2]; [7] | [3]; [8] | [4]; [9] | [5]; [10]

CCOCCN(C(=O)c1cc(-c2cnn(-c3c(OC(F)F)c(C(F)(C(F)(F)F)C(F)(F)F)nn3C)c2)ccc1Cl)C1(C#N)CC1 [Example 13, 2-chloro-N-(1-cyanocyclopropyl)-5-[1-[4-(difluoromethoxy)-2-methyl-5-[1,2,2,2-tetrafluoro-1-(trifluoromethyl)ethyl]pyrazol-3-yl]pyrazol-4-yl]-N-(2-ethoxyethyl)benzamide]
≥ 80%: [1]; [6] | [2]; [7] | [4]; [9] | [5]; [10]

CCCN(C(=O)c1cc(-c2cnn(-c3c(OC(F)F)c(C(F)(C(F)(F)F)C(F)(F)F)nn3C)c2)ccc1Cl)C1(C#N)CC1 [Example 14, 2-chloro-N-(1-cyanocyclopropyl)-5-[1 - [4-(difluoromethoxy)-2-methyl-5-[1,2,2,2-tetrafluoro-1-(trifluoromethyl)ethyl]pyrazol-3-yl]pyrazol-4-yl]-N-propyl-benzamide]
≥ 80%: [3]; [8] | [4]; [9]

CC(C)N(C(=O)c1cc(-c2cnn(-c3c(OC(F)F)c(C(F)(C(F)(F)F)C(F)(F)F)nn3C)c2)ccc1Cl)C1(C#N)CC1 [Example 5, 2-chloro-N-(1-cyanocyclopropyl)-5-[1-[4-(difluoromethoxy)-2-methyl-5-[1,2,2,2-tetrafluoro-1-(trifluoromethyl)ethyl]pyrazol-3-yl]pyrazol-4-yl]-N-isopropyl-benzamide]
≥ 80%: [3]; [8] | [4]; [9]
